Assays:
[1] = biological target: T1, B. fragilis xylose isomerase (SEQ. ID NO: 4) (Bacteroides fragilis, UniProt Q5LCV9); experiment: xylitol inhibition of xylose isomerase activity (B. fragilis XI, SEQ. ID NO: 4); format: biochemical; conditions: 12.5 mM xylitol; percent of activity obtained in the absence of xylitol
T1 construct: ID NO: 4 in comparison to its E. coli orthologue
Protocol: (§1) Activity is reported as the percent of activity obtained in the absence of xylitol.
(§2) A distinguishing feature of the B. fragilis isomerases described herein is that enzymes are less inhibited by xylitol than orthologue XI sequences from other organism. […] ID NO: 4 in comparison to its E. coli orthologue. At 12.5 mM xylitol, the E. coli XI activity is >97% inhibited, in contrast to the B. fragilis XI, which retains at least 30% of its activity at the same xylitol concentration.

E. coli xylose isomerase = E. coli xylose isomerase (Escherichia coli, UniProt P00944); experiment: xylitol inhibition of xylose isomerase activity (E. coli XI); format: biochemical; conditions: read-out: E. coli XI activity inhibited
Protocol: as §1, §2

T1 sequence (Q5LCV9 whole entry, looked up, natural form): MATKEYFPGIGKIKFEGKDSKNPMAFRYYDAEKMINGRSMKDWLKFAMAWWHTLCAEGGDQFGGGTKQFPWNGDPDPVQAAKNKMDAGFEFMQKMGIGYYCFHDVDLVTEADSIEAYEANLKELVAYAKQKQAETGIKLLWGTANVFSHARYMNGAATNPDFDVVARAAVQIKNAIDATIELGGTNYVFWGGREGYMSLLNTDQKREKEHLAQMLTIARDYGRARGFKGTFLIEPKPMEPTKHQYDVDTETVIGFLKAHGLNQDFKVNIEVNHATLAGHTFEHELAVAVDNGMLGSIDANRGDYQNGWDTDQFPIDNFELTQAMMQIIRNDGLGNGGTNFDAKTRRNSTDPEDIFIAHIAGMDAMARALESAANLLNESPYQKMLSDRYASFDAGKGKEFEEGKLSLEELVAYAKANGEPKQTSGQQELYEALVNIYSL
E. coli xylose isomerase, sequence (P00944 whole entry): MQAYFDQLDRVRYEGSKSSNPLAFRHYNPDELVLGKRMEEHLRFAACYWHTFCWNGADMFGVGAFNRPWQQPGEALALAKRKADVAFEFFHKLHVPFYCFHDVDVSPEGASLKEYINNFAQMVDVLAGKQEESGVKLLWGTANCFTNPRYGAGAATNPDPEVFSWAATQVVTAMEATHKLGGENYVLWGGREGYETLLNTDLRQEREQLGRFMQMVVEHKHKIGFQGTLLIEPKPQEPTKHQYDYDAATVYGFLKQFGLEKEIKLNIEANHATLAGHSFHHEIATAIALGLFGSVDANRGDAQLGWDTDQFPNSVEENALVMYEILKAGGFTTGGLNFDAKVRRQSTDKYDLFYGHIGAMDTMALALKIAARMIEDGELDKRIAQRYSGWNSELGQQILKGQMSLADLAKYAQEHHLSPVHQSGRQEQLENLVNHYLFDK

In the case of `OC[C@@H](O)[C@H](O)[C@@H](O)CO` [xylitol], the “B. fragilis XI activity retained” value [1] is reported as “at least 30%” and the inhibition at 12500 µM (E. coli xylose isomerase) is reported as over 97%.
